According to article PMC4226669, “Anti-cancer potency of tasquinimod is enhanced via albumin-binding facilitating increased uptake in the tumor microenvironment” (Oncotarget, 2014):
“Also recorded” adds a separate entry of the source. Like-named read-outs stand apart in the source and are kept apart here.

Key:
[1] = tested on: human umbilical vein endothelial cells (HUVECs); assay: 3D in vitro endothelial sprouting and tube formation assay; format: cell-based; settings: for IC50: Homo sapiens, HUVEC, 3D-HUVEC sprouting assay, read-out: IC50 (concentration of drug which inhibits by 50% the endothelial sprouting)
Text: A three-dimensional (3D) in vitro endothelial sprouting and tube formation assay was utilized to define the anti-angiogenic potency of tasquinimod vs. these metabolites. In this 3D assay, human umbilical endothelial cells (i.e., HUVECs) are initially grown on microcarrier beads and the cell coated beads embedded in fibrin gels with media conditioned by normal human lung fibroblasts. Under these 3D-conditions, endothelial cells “sprout” producing 3D neovessel tubes with patent lumen within one week, Figure 4A - left panel. When tasquinimod is added at the initiation to these 3D-cultures, sprouting of the endothelial cells is inhibited, Figure 4B-right panel, with the potency for such inhibition, expressed as an IC50 value (i.e., the concentration of drug which inhibits by 50% the endothelial sprouting) of 0.5 μM, Figure 4C. […] Using this 3D-HUVEC assay, the potency (i.e., expressed as IC50) of tasquinimod metabolites to inhibit endothelial sprouting was compared to tasquinimod. […] To further confirm that tasquinimod itself and not the carboxamide-N-demethylated metabolite is the active drug, the response to ketoconazole alone and in combination with tasquinimod was tested in the 3D-endothelial sprouting assay.
The 3-dimensional (3D) in vitro angiogenic sprouting and tube formation assay was used as described previously. This 3D-endothelial sprouting assay was conducted using a minimum of 5 replicate wells per drug dose per experiment, repeated 3 independent times using human umbilical vein endothelial cells (HUVECs; Lonza Walkersville, Inc.) with modification that 20 μL of 10X concentrated Dulbecco's Modified Eagle's Media/10%FCS media conditioned by confluent human primary lung fibroblasts (Lonza) diluted to 200 μL of growth factor supplemented EGM-2 media (Lonza) was used instead of fibroblast co-culture.

[2] = Tissue distribution and metabolites in nude mice bearing CWR-22Rv1 cancers; format: in vivo, mouse; settings: 4 hours post oral 5mg/kg tasquinimod; for concentration at 4 h: male, nude, mouse
Method: To determine the concentration of metabolites, nude mice bearing CWR-22Rv1 prostate cancers were orally administered with 5 mg/kg of ^14C- radiolabeled tasquinimod and 4 and 24 hours later, blood plasma and liver, kidney, and cancer tissue harvested and analyzed for determination of metabolites. […] The predominant metabolite is the O-demethylated quinoline compound, Figure 2A&B, but the concentration of the hydroxylated aromatic quinoline and the N-demethylated quinoline compounds, along with the O-demethylated quinoline compound are also higher in the liver than the blood at the time point studied, Figure 2B. Also in the kidney 40% of the drug is present as metabolites, with the concentration of the hydroxylated aromatic quinoline and the O-demethylated quinoline compounds being higher than in the blood, Figure 2B. In contrast, within the cancer > 80% of the total concentration of drug is present as parent tasquinimod, Figure 2B. Only the O-demethylated quinoline compound is present at a higher concentration in the cancer than blood, Figure 2B. The plasma concentration of total metabolites is < 10% at 4 hours, Figure 2B, and 24 hours post oral dosing with 5 mg/kg, Figure 2A.
Male nude mice bearing 200-300mm^3 CWR-22Rv1 cancers were given ^14C-labeled tasquinimod at a dose of 5 mg/kg via oral gavage. At times ranging from 30 min to 24 hour, groups of 4-6 mice were anaesthetized with ketamine and 1 ml of heparinized blood collected by cardiac puncture, followed by subsequent cardiac perfusion of saline to remove blood associated drug. An aliquot of liver, kidney, and cancer was removed, weighed and then homogenized. The radioactivity in 10 μL aliquots of tissue homogenates and blood plasma was determined using a liquid scintillation counter and used to calculate the total amount of tasquinimod plus its metabolites per gram of tissue or per ml of blood. The remaining sample volume was deproteinated with acetonitrile and the radioactivity of an aliquot of the supernatant determined and the remaining supernatant lyophilized, resuspended initially with 0.1mL dimethyl sulfoxide and diluted by the addition of 0.9mL deionized water prior to injection into the HPLC. The HPLC system consisted of Waters pumps using a Waters gradient controller to deliver mobile phase at a flow rate of 1mL per minute using a Supelcosil ABZ+ C18 column that is 150mm long by 4.6mm diameter and has 5μm particle size. The metabolites were separated using a linear gradient in which the starting mobile phase was 35% acetonitrile: 65% water: 0.1% Trifluoroacetic acid (TFA) increasing to 50% acetonitrile: 50% water: 0.1%TFA over 25 minutes, and then increased rapidly to 98% acetonitrile: 2% water: 0.1%TFA and held until 33 minutes before it is returned to the initial conditions for the next run. Fractions were collected and the radioactivity determined by scintillation counting. As controls, the individual elution time of non-radiolabeled standard solutions of the various tasquinimod metabolites was determined using UV absorption at 215nm. The results were expressed as concentration based upon tissue volume, assuming 1gram wet weight equals 1ml, or normalized to tissue vascular volume.

[3] = tested on: CWR-22Rv1 human prostate cancer xenografts; assay: Dose-response growth inhibition of established CWR-22Rv1 xenografts (subcutaneous daily injection); format: in vivo, mouse; settings: 20 days
Method: To confirm these in vitro results, mice were inoculated subcutaneously (SQ) with CWR-22Rv1 cells and remained untreated until the tumors grew to ~ 200 mm3 (i.e., ~ 200 mgs) and then they were randomly assigned to groups (n=10) which were injected SQ daily with 100 μl of propylene glycol vehicle only vs. vehicle delivering 0.1 or 1 mg/kg/day of either tasquinimod or its carboxamide-N-demethylated metabolite. Propylene glycol was used as vehicle due to the low water solubility of the carboxamide-N-demethylated metabolite. After 20 days of continuous treatment, the experiment was terminated and the total weight of each cancer determined and the results expressed both as average tumor weight in grams and as the ratio of the weight of the cancers in the treated vs. vehicle control animals (i.e., T/C ratio), Figure 5A.
(§1) The source, history, and characteristics of the human prostate cancer cell lines (i.e., LNCaP, LAPC4, and CWR-22Rv1 and the human umbilical vascular endothelial cells (HUVEC) used, as well as cell culture conditions for their in vitro maintenance and the in vivo protocol for their xenografting into immune-deficient nude male mice are as described previously. The source, history, and characteristics of the TRAMP-C2 mouse prostate cancer line, as well as cell culture conditions for their in vitro maintenance and the in vivo protocol for their growth in intact adult male syngeneic C57Bl/6J are as described previously. All lines were mycoplasma negative using the MycoSensor PCR Assay kit (Agilent Technologies) and genetically authenticated within the last 6 months using short tandem repeat profiling conducted by the Johns Hopkins Genetic Resource Core Facility. The source, history, and characteristics of the CWR-RH human prostate cancer xenograft are as described previously. In vitro growth curves were determined as described. Animal studies were conducted according to animal protocol MO09M434 approved by Johns Hopkins Animal Care and Use Committee. Daily drug dosing via oral gavage, the drinking water, or subcutaneous injection, as well as tumor volume measurements and determination of the blood vessel density within cancers, were as described previously. These experiments were repeated at 3 independent times for each xenograft.

HUVEC cells = assay: In vitro cell metabolism in HUVEC; format: in vitro ADME, human; settings: HUVEC exposed to 1 μM 14C-labeled tasquinimod, 48 hours
Method: The nuclear uptake results are consistent with tasquinimod being the active drug for both direct therapeutic effects on cancer cells and indirect effects via suppression of the angiogenic response of host endothelial cells. To confirm these conclusions, the concentration of tasquinimod metabolites produced by endothelial cells was compared to the potency of these metabolites for inhibiting angiogenesis. When HUVEC cells are exposed to 1 μM of ^14C-labeled tasquinimod for 48 hours, < 15% of the drug is metabolized with 10% (i.e., 100 nM) being converted to the quinoline-O-demethylated compound and < 2% (i.e., < 20 nM) being converted to the quinoline-N-demethylated or carboxamide-N-demethylated compounds.
For in vitro studies, cells were incubated with 1μM ^14C-labeled tasquinimod for indicated time period and then the media and cells or cell nuclei separately harvested, deproteinated with acetonitrile, and metabolites separated by HPLC and quantitated as described above.

Water solubility = format: physicochemical
[4] = tested on: CWR-22RH human prostate cancer; assay: Tumor take of CWR-22RH xenografts in castrated nude mice; format: in vivo, mouse
Method: To confirm this conclusion, castrated male nude mice were xenografted with the castrate resistant CWR-22RH human prostate cancer tissue and the animals immediately randomized into groups (n=10) which were: 1) left untreated as controls; 2) given daily oral treatment with tasquinimod alone via the drinking water (10mg/kg/day); 3) given oral ketoconazole alone via oral gavage at a daily dose which inhibits cytochrome P450 3A4 (i.e., 25 mg/kg/day); or 4) given a combination of the two drugs. […] These combined in vitro/in vivo results document tasquinimod, not one of its metabolites, is the active drug.
as §1

CYP-3A [5] = tested on: CYP-3A; set-up: method as in PMID 15764719; settings: read-out: IC50 for inhibition of CYP-3A; cited from earlier work
CYP-3A [6] = tested on: CYP-3A; set-up: method as in PMID 21391977; settings: oral dose of 25mg/kg/day; cited from earlier work
[7] = CWR-22Rv1 cancer tissue, CWR-22Rv1 cancer, 1gm tissue = 1ml, read-out: concentration in CWR-22Rv1 cancer
[8] = kidney, 1gm tissue = 1ml, read-out: concentration in kidney
[9] = liver, 1gm tissue = 1ml, read-out: concentration in liver
[10] = plasma, read-out: concentration in plasma

percentage of total drug in CWR-22Rv1 cancer ([2]; CWR-22Rv1 cancer) | percentage of total drug in kidney ([2]; kidney) | percentage of total drug in liver ([2]; liver) | concentration at 4 h [2, 7] | concentration at 4 h [2, 8] | concentration at 4 h [2, 9] | concentration at 4 h [2, 10] | percentage of total drug in plasma ([2]; plasma) | concentration of metabolite formed (HUVEC cells) | fraction of tasquinimod converted to the metabolite (HUVEC cells) | Structure (SMILES) | IC50 [1] | further results
< 1% | < 1% | < 1% | < 30 nM | < 30 nM | < 130 nM | < 60 nM | < 1% | < 20 nM | < 2% | COc1cccc2c1c(O)c(C(=O)Nc1ccc(C(F)(F)F)cc1)c(=O)n2C [Carboxamide-N-demethylate] | 0.25 µM | fold more potent than tasquinimod (lower IC50) in inhibiting endothelial sprouting ([1]; relative to tasquinimod): 2 fold; Avg Tumor Weight ([3]; 0.1 mg/kg/day SQ): 0.891 ± 0.263 g; T/C Ratio ([3]; 0.1 mg/kg/day SQ): 0.512; Avg Tumor Weight ([3]; 1 mg/kg/day SQ): 0.724 ± 0.223 g; T/C Ratio ([3]; 1 mg/kg/day SQ): 0.415; water solubility (Water solubility): low
< 1% | < 1% | 2+/-1% | < 30 nM | < 30 nM | 260 nM | < 60 nM | < 1% | < 20 nM | < 2% | COc1cccc2[nH]c(=O)c(C(=O)N(C)c3ccc(C(F)(F)F)cc3)c(O)c12 [Quinoline-N-demethylate] | 20 µM | 
17+/- 4% | 36+/-4% | 62+/-7% | 460 nM | 1400 nM | 8100 nM | 300 nM | 5+/-1% | 100 nM | 10% | CN(C(=O)c1c(O)c2c(O)cccc2n(C)c1=O)c1ccc(C(F)(F)F)cc1 [Quinoline-O-demethylate] | 30 µM | 
 |  |  |  |  |  |  |  |  |  | CC(=O)N1CCN(c2ccc(OCC3COC(Cn4ccnc4)(c4ccc(Cl)cc4Cl)O3)cc2)CC1 (stereo not drawn) [ketoconazole] |  | effect of ketoconazole on tasquinimod's inhibition of 3D HUVEC sprouting ([1]; 10 μM ketoconazole simultaneously present with 1 μM tasquinimod): does not affect; also recorded: does not prevent inhibition; also recorded: does not suppress; inhibition of endothelial sprouting ([1]; ketoconazole alone, 10 μM): did not inhibit; effect of ketoconazole on anti-cancer efficacy of tasquinimod ([4]; ketoconazole 25 mg/kg/day combined with tasquinimod 10mg/kg/day): does not affect; also recorded: does not inhibit the therapeutic efficacy of tasquinimod; also recorded: does not suppress; tumor take and growth ([4]; ketoconazole alone 25 mg/kg/day via oral gavage from inoculation): does not inhibit either the take or growth; IC50 (CYP-3A [5]): […]; inhibition of CYP-3A (CYP-3A [6]): > 90%
